Key:
Yap1 mRNA [1] = assay: Yap1 mRNA levels in CAL33 xenograft tumors (Example 29); type: in vivo, human; conditions: CAL33 xenografts, 50 mg/kg twice weekly for two weeks, relative to PBS treated animals
Method: (§1) A xenograft tumor model was used to evaluate activity of modified oligonucleotides targeted to human Yap1. One million CAL33 cells in 30% matrigel were implanted subcutaneously into the flanks of female CrTac:NCr-Foxnlnu (Taconic) mice. When tumors reached an average volume of 100 mm^3, approximately two weeks post-implantation, groups of eight mice were administered at 50 mg/kg twice weekly with modified oligonucleotides for two weeks. ION 792169 was administered as a control.
Tumor samples were collected for measurement of Yap1 mRNA levels by RT-qPCR. Yap1 mRNA levels were measured as previously described using the Human Yap1 primer-probe set RTS4814. Yap1 mRNA levels were normalized to actin-beta content, as measured by primer probe set RTS5002. Results are presented in the tables below as percent control of the amount of Yap1 mRNA relative to PBS treated animals (% control).

CAL33 xenograft tumor = assay: Tumor volume and tumor weight in CAL33 xenograft tumor model (Example 29); type: in vivo, human; conditions: 50 mg/kg twice weekly for two weeks; for Average Tumor Volume: CAL33 xenografts
Method: as §1
Tumor volume was measured at the indicated days in the table below. Tumor weight was determined at end of study. Mice were sacrificed when tumors from PBS-treated mice reached 2,000 mm3.

NCI H747 cells = assay: Cell proliferation assay in NCI H747 cells, CellTiter-Glo (Example 31); type: cell-based, human; conditions: free uptake, 7 days
Method: Modified oligonucleotides described in the studies above were tested at various doses in colorectal adenocarcinoma cell line NCI H747. A control oligonucleotide 792169 was also tested.
Cultured NCI H747 cells at a density of 3000 cells/well were treated using free uptake with modified oligonucleotides diluted to concentrations described in the tables below. After 7 days, cell proliferation was measured using the luminescent cell viability CellTiter-Glo® 2.0 Assay (Promega). Results are presented in the tables below as percent control of the amount of luminescence in samples treated with modified oligonucleotides relative to untreated control cells (% UTC).

BICR56 cells = assay: Cell proliferation assay in BICR56 cells, CellTiter-Glo (Example 33); type: cell-based, human; conditions: free uptake, approximately 144 hours
Method: Modified oligonucleotides described in the studies above were tested at various doses in squamous cell carcinoma adherent keratinocyte cell line BICR56. A control oligonucleotide 792169 was also tested.
Cultured BICR56 cells at a density of 1000 cells/well were treated using free uptake with modified oligonucleotides diluted to concentrations described in the tables below. After approximately 144 hours, cell proliferation was measured using the luminescent cell viability CellTiter-Glo® 2.0 Assay (Promega). Results are presented in the tables below as percent control of the amount of luminescence in samples treated with modified oligonucleotides relative to untreated control cells (% UTC).

SCC-9 cells = assay: Cell proliferation assay in SCC-9 cells, CellTiter-Glo (Example 40); type: cell-based, human; conditions: free uptake, approximately 144 hours
Method: Modified oligonucleotides described in the studies above were tested at various doses in tongue squamous cell carcinoma cell line SCC-9. A control oligonucleotide 792169, described herein above, was also tested.
Cultured SCC-9 cells at a density of 1000 cells/well were treated using free uptake with modified oligonucleotides diluted to concentrations described in the tables below. After approximately 144 hours, cell proliferation was measured using the luminescent cell viability CellTiter-Glo® 2.0 Assay (Promega). Results are presented in the tables below as percent control of the amount of luminescence in samples treated with modified oligonucleotides relative to untreated control cells (% UTC).

SNU-899 cells = assay: Cell proliferation assay in SNU-899 cells, CellTiter-Glo (Example 43); type: cell-based, human; conditions: free uptake, approximately 144 hours
Method: Modified oligonucleotides described in the studies above were tested at various doses in laryngeal squamous cell carcinoma cell line SNU-899. A control oligonucleotide 792169, described herein above, was also tested.
Cultured SNU-899 cells at a density of 1000 cells/well were treated using free uptake with modified oligonucleotides diluted to concentrations described in the tables below. After approximately 144 hours, cell proliferation was measured using the luminescent cell viability CellTiter-Glo® 2.0 Assay (Promega). Results are presented in the tables below as percent control of the amount of luminescence in samples treated with modified oligonucleotides relative to untreated control cells (% UTC).

Yap1 mRNA [2] = assay: Yap1 mRNA in UPCI:SCC090 cells, RNA analysis (Example 47); type: cell-based, human; conditions: free uptake, approximately 48 hours
Method: (§2) Modified oligonucleotides described in the studies above were tested at various doses in tongue squamous cell carcinoma cell line UPCI:SCC090. A control oligonucleotide 792169, described herein above, was also tested.
Cultured UPCI:SCC090 cells at a density of 5000 cells per well were treated using free uptake with modified oligonucleotides diluted to concentrations described in the tables below. After approximately 48 hours, Yap1 mRNA levels were measured as previously described using the Human Yap1 primer-probe set RTS4814. Yap1 mRNA levels were normalized to actin-beta content, as measured by primer probe set RTS5002. Results are presented in the tables below as percent control of the amount of Yap1 mRNA relative to untreated control cells (% UTC).

UPCI:SCC090 cells = assay: Cell proliferation assay in UPCI:SCC090 cells, CellTiter-Glo (Example 47); type: cell-based, human; conditions: free uptake, approximately 144 hours
Method: as §2
Cultured UPCI:SCC090 cells at a density of 1000 cells/well were treated using free uptake with modified oligonucleotides diluted to concentrations described in the tables below. After approximately 144 hours, cell proliferation was measured using the luminescent cell viability CellTiter-Glo® 2.0 Assay (Promega). Results are presented in the tables below as percent control of the amount of luminescence in samples treated with modified oligonucleotides relative to untreated control cells (% UTC).

Sequence: CGCCGATAAGGTACAC (cEt gapmer, phosphorothioate backbone, further chemistry not given here) [ION 792169, reference compound]
- Yap1 mRNA levels in tumors, % control (Yap1 mRNA [1]): 74 % control
- Average Tumor weight (CAL33 xenograft tumor; CAL33 xenograft mice, end of study): 0.85 g
- Average Tumor Volume (CAL33 xenograft tumor; day 10 post-implantation): 123 mm^3
- Average Tumor Volume (CAL33 xenograft tumor; day 13 post-implantation): 262 mm^3
- Average Tumor Volume (CAL33 xenograft tumor; day 17 post-implantation): 367 mm^3
- Average Tumor Volume (CAL33 xenograft tumor; day 21 post-implantation): 531 mm^3
- Average Tumor Volume (CAL33 xenograft tumor; day 24 post-implantation): 774 mm^3
- Average Tumor Volume (CAL33 xenograft tumor; day 27 post-implantation): 805 mm^3
- Average Tumor Volume (CAL33 xenograft tumor; day 31 post-implantation): 962 mm^3
- Average Tumor Volume (CAL33 xenograft tumor; day 34 post-implantation): 1057 mm^3
- Average Tumor Volume (CAL33 xenograft tumor; day 38 post-implantation): 1171 mm^3
- Average Tumor Volume (CAL33 xenograft tumor; day 40 post-implantation): 1160 mm^3
- Average Tumor Volume (CAL33 xenograft tumor; day 44 post-implantation): 1069 mm^3
- Antiproliferative effect (cell proliferation, luminescence) (NCI H747 cells; 0.04 μM): 89 % UTC
- Antiproliferative effect (cell proliferation, luminescence) (NCI H747 cells; 0.2 μM): 97 % UTC
- Antiproliferative effect (cell proliferation, luminescence) (NCI H747 cells; 1 μM): 91 % UTC
- Antiproliferative effect (cell proliferation, luminescence) (NCI H747 cells; 5 μM): 80 % UTC
- Antiproliferative effect (cell proliferation, luminescence) (BICR56 cells; 0.04 μM): 106 % UTC
- Antiproliferative effect (cell proliferation, luminescence) (BICR56 cells; 0.2 μM): 100 % UTC
- Antiproliferative effect (cell proliferation, luminescence) (BICR56 cells; 1 μM): 92 % UTC
- Antiproliferative effect (cell proliferation, luminescence) (BICR56 cells; 5 μM): 87 % UTC
- Antiproliferative effect (cell proliferation, luminescence) (SCC-9 cells; 0.04 μM): 104 % UTC
- Antiproliferative effect (cell proliferation, luminescence) (SCC-9 cells; 0.2 μM): 111 % UTC
- Antiproliferative effect (cell proliferation, luminescence) (SCC-9 cells; 1 μM): 102 % UTC
- Antiproliferative effect (cell proliferation, luminescence) (SCC-9 cells; 5 μM): 94 % UTC
- Antiproliferative effect (cell proliferation, luminescence) (SNU-899 cells; 0.04 μM): 90 % UTC
- Antiproliferative effect (cell proliferation, luminescence) (SNU-899 cells; 0.2 μM): 94 % UTC
- Antiproliferative effect (cell proliferation, luminescence) (SNU-899 cells; 1 μM): 96 % UTC
- Antiproliferative effect (cell proliferation, luminescence) (SNU-899 cells; 5 μM): 86 % UTC
- human Yap1 mRNA expression (Yap1 mRNA [2]; 0.04 μM): 100 % UTC
- human Yap1 mRNA expression (Yap1 mRNA [2]; 0.2 μM): 108 % UTC
- human Yap1 mRNA expression (Yap1 mRNA [2]; 1 μM): 112 % UTC
- human Yap1 mRNA expression (Yap1 mRNA [2]; 5 μM): 84 % UTC
- Antiproliferative effect (cell proliferation, luminescence) (UPCI:SCC090 cells; 0.04 μM): 100 % UTC
- Antiproliferative effect (cell proliferation, luminescence) (UPCI:SCC090 cells; 0.2 μM): 104 % UTC
- Antiproliferative effect (cell proliferation, luminescence) (UPCI:SCC090 cells; 1 μM): 99 % UTC
- Antiproliferative effect (cell proliferation, luminescence) (UPCI:SCC090 cells; 5 μM): 93 % UTC

Reference: US11214803B2, “Modulators of YAP1 expression” (Ionis Pharmaceuticals, Inc., priority 2019, dated 2022)
